The text below walks through data of US6093732A, “4-hydroxyquinoline-3-carboxamides and hydrazides as antiviral agents” (Pharmacia & Upjohn Company, priority 1998, dated 2000).

As a reminder, the pIC50 is the negative decadic logarithm of the IC50, by convention in mol/L.

Structures are written as SMILES. pIC50: −log10 of the molar value.

Holding throughout (assay type): biochemical
For one assay, the target named is T1, HCMV polymerase (Human cytomegalovirus, UniProt P08546).
T1 construct: made in house; host or cells: recombinant baculovirus-infected SF-9 cells
Put plainly: HCMV polymerase scintillation proximity assay (SPA), modified version. As to conditions: CMV polymerase; Table 1; modified assay with 4.5 mM DTT, compounds in 100% DMSO; read-out: Antiviral Selective Polymerase IC50 Values, CMV. A digest of the protocol:
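SPA measuring 3H-dTTP (90 nM) incorporation on 6 nM biotinylated poly(dA)-oligo(dT) by SF-9-expressed enzyme, pH 7.5 HEPES/KCl/MgCl2/BSA buffer with or without 2 mM CHAPS. Run at 25° C or 37° C, stopped with EDTA while linear (HCMV 30 min); IC50 from linear regression. Modified format adds 4.5 mM DTT, compounds diluted in 100% DMSO.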

A further assay concerns the target HSV polymerase (Human herpesvirus 1, UniProt P04293). Briefly: HSV polymerase assay (procedure similar to the HCMV polymerase SPA). Conditions: Table 1, read-out: Antiviral Selective Polymerase IC50 Values, HSV. Here is the method:
(§1) The HCMV polymerase assay is performed using a scintillation proximity assay (SPA) as described in several references, such as N. D. Cook, et al., Pharmaceutical Manufacturing International, pages 49-53 (1992); K. Takeuchi, Laboratory Practice, September issue (1992); U.S. Pat. No. 4,568,649 (1986); which are incorporated by reference herein. Reactions are performed in 96-well plates. The assay is conducted in 100 μl volume with 5.4 mM HEPES (pH 7.5), 11.7 mM KCl, 4.5 mM MgCl2, 0.36 mg/ml BSA, and 90 nM ^3 H-dTTP. Assays are run with and without CHAPS, (3-[(3-Cholamidopropyl)-dimethylammonio]-1-propane-sulfonate) at a final concentration of 2 mM. HCMV polymerase is diluted in enzyme dilution buffer containing 50% glycerol, 250 mM NaCl, 10 mM HEPES (pH 7.5), 100 μg/ml BSA, and 0.01% sodium azide. The HCMV polymerase, which is expressed in recombinant baculovirus-infected SF-9 cells and purified according to literature procedures, is added at 10% (or 10 μl) of the final reaction volume, i.e., 100 μl. Compounds are diluted in 50% DMSO and 10 μl are added to each well. Control wells contain an equivalent concentration of DMSO. Unless noted otherwise, reactions are initiated via the addition of 6 nM biotinylated poly(dA)-oligo(dT) template/primer to reaction mixtures containing the enzyme, substrate, and compounds of interest. Plates are incubated in a 25° C. or 37° C. H2 O bath and terminated via the addition of 40 μl/reaction of 0.5 M EDTA (pH 8) per well. Reactions are terminated within the time-frame during which substrate incorporation is linear and varied depending upon the enzyme and conditions used, i.e., 30 min. for HCMV polymerase. Ten μl of streptavidin-SPA beads (20 mg/ml in PBS/10% glycerol) are added following termination of the reaction. Plates are incubated 10 min. at 37° C., then equilibrated to room temperature, and counted on a Packard Topcount. Linear regressions are performed and IC50 's are calculated using computer software.
(§2) A modified version of the above HCMV polymerase assay is performed as described above, but with the following changes: Compounds are diluted in 100% DMSO until final dilution into assay buffer. In the previous assay, compounds are diluted in 50% DMSO. 4.5 mM dithiotherotol (DTT) is added to the polymerase buffer. […] Other viral polymerase assays are performed using procedures similar to those described above.

A further assay concerns the target VZV polymerase (Varicella-zoster virus, UniProt P09252). Briefly: VZV polymerase assay (procedure similar to the HCMV polymerase SPA). As to conditions: Table 1, read-out: Antiviral Selective Polymerase IC50 Values, VZV. Here is the method:
as §1, §2

Chain of HSV polymerase (P04293 whole entry): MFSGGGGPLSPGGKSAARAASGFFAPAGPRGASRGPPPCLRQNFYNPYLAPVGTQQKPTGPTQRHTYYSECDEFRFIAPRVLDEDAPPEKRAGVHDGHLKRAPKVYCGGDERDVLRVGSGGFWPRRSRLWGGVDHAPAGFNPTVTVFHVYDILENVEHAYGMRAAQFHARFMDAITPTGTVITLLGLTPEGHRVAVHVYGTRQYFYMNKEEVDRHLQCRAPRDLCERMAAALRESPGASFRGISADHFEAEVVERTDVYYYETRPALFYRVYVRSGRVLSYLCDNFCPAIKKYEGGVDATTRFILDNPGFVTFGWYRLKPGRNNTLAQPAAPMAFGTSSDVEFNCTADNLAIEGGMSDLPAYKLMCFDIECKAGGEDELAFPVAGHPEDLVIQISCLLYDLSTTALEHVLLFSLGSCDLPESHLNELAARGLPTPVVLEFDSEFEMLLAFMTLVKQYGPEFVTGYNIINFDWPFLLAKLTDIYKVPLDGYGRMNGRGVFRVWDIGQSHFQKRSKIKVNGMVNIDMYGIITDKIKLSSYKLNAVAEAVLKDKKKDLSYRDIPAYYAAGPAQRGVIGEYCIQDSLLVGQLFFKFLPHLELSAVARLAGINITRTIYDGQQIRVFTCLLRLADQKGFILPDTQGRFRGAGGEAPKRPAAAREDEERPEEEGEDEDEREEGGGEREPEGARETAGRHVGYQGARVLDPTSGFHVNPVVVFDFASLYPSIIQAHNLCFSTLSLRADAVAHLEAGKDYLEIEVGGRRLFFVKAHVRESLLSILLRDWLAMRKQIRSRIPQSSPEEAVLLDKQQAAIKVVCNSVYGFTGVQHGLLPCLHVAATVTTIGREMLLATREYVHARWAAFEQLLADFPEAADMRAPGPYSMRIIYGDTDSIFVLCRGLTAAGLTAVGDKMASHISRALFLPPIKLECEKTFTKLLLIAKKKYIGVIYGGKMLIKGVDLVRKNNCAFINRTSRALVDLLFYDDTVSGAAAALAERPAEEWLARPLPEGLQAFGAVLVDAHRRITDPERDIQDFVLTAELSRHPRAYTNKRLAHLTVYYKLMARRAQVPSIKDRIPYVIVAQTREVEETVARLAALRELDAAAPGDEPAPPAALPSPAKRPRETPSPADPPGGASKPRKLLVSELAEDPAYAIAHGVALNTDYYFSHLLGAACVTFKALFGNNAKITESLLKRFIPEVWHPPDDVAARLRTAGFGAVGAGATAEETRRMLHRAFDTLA
T1 sequence (P08546 whole entry): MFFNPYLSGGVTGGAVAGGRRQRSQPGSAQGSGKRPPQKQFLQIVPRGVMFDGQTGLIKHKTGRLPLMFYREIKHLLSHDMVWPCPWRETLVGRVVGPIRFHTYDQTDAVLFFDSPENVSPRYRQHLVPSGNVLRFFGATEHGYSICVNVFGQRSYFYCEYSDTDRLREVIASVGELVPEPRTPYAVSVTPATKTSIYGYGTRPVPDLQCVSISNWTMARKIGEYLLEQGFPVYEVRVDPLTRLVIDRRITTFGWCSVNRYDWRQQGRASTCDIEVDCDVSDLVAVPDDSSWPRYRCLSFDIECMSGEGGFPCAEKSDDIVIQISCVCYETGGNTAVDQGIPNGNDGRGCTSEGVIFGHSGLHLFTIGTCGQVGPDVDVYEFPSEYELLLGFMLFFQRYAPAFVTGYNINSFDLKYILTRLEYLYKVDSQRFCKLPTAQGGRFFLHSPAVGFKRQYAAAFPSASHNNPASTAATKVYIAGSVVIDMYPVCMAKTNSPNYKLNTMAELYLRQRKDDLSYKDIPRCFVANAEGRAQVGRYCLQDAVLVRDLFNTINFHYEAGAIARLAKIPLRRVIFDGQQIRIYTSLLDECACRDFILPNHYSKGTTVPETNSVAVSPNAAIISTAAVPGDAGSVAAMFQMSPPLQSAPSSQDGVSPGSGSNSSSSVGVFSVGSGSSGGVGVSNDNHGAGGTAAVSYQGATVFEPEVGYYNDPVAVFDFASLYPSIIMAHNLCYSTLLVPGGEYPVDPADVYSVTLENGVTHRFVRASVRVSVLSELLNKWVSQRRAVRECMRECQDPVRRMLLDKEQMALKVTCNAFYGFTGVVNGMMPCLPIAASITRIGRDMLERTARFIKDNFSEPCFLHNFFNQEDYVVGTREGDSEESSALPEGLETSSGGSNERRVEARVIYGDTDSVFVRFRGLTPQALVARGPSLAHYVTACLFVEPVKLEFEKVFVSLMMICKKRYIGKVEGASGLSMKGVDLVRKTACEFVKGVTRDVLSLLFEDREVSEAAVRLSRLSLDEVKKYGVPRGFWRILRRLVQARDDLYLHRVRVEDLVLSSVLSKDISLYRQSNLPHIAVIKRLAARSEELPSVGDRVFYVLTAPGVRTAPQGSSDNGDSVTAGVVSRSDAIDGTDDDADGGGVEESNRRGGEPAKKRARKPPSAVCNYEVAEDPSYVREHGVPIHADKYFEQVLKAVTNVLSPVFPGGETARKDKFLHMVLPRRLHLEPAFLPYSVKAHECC
Chain of VZV polymerase (P09252 whole entry): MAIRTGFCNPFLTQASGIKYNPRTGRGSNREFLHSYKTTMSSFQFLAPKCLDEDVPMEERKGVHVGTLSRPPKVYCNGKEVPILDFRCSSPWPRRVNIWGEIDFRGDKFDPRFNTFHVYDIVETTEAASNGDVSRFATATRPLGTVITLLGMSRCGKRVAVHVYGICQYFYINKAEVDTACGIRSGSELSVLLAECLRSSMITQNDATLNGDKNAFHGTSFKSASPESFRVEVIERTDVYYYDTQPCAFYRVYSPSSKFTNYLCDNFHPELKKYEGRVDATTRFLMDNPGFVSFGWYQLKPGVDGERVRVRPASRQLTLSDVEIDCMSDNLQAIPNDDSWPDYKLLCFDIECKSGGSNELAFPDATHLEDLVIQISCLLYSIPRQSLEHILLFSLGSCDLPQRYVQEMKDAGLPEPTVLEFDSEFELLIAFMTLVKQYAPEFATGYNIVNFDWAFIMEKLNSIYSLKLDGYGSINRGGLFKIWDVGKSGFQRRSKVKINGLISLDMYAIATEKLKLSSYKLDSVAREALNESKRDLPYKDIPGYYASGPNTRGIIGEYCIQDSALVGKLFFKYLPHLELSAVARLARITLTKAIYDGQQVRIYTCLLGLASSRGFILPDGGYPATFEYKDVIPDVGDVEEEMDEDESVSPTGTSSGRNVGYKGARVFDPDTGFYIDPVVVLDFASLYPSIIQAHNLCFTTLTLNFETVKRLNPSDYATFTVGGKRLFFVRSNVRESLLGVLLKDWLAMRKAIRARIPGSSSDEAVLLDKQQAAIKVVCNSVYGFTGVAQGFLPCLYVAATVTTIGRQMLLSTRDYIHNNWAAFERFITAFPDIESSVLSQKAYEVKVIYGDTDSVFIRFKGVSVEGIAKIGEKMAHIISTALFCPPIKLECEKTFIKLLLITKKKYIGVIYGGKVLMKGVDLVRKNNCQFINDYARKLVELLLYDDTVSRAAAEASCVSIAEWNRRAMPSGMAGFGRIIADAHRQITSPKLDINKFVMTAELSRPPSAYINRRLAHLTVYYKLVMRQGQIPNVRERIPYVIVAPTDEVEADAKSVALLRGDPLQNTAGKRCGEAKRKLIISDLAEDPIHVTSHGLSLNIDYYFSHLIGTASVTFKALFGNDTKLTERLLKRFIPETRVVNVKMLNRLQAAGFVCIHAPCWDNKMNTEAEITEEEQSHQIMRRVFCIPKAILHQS

On to `O=C(NCc1ccc(Cl)cc1)c1cnc2c(F)cc(-c3cccs3)cc2c1O` [Example 75, N-[(4-Chlorophenyl)methyl]-8-fluoro-4-hydroxy-6-(2-thiophenyl)-3-quinolinecarboxamide], for which the negative-log IC50 (pIC50) on HCMV polymerase was 6.77; on HSV polymerase it was 6.37; at VZV polymerase, 6.80. Take `O=C(NCc1ccc(Cl)cc1)c1cnc2c(OCCO)cc(CCCO)cc2c1O` [Example 124, N-(4-Chlorobenzyl)-4-hydroxy-8-(2-hydroxyethoxy)-6-(3-hydroxypropyl)-3-quinolinecarboxamide]: the negative-log IC50 (pIC50) on HCMV polymerase was 6.60; at HSV polymerase it was 6.22; on VZV polymerase, 6.41. The corresponding values for `N#C/C=C/c1cc(F)c2ncc(C(=O)NCc3ccc(Cl)cc3)c(O)c2c1` [Example 133, N-(4-Chlorobenzyl)-6-[(E)-2-cyanoethenyl]-8-fluoro-4-hydroxy-3-quinolinecarboxamide] are 5.40, 5.49 and 5.66. In the case of `CC(O)C#Cc1ccc2ncc(C(=O)NCc3ccc(Cl)cc3)c(O)c2c1` (stereo not shown) [Example 152, N-(4-Chlorobenzyl)-4-hydroxy-6-(3-hydroxy-1-butynyl)-3-quinolinecarboxamide], at HCMV polymerase, the pIC50 was 5.27. On the same count and under the same terms, the same measure for `O=C(NCc1ccc(Cl)cc1)c1cnc2c(F)cc(S(=O)(=O)NCc3ccc(Cl)cc3F)cc2c1O` [Example 262, N-(4-chlorobenzyl)-6-{[(4-chloro-2-fluorobenzyl)amino]sulfonyl}-8-fluoro-4-hydroxy-3-quinolinecarboxamide]: 5.00; for `O=C(NCc1ccc(Cl)cc1)c1cnc2c(F)cc(Br)cc2c1O` [Example 4]: 5.47. Consider `O=C(NCc1ccc(Cl)cc1)c1cnc2c(F)cc(S(=O)(=O)NCCOc3ccccc3)cc2c1O` [Example 256, N-(4-chlorobenzyl)-8-fluoro-4-hydroxy-6-{[(2-phenoxyethyl)amino]sulfonyl}-3-quinolinecarboxamide], for which the pIC50 on HCMV polymerase was 5.03. For `O=C(NCc1ccc(Cl)cc1)c1cnc2c(F)cc(S(=O)(=O)NCCCBr)cc2c1O` [Example 248, 6-{[(3-bromopropyl)amino]sulfonyl}-N-(4-chlorobenzyl)-8-fluoro-4-hydroxy-3-quinolinecarboxamide], at HCMV polymerase, the pIC50 was 4.94.

On to `CC(C)(C)O[PH](=O)OCCCc1cc(F)c2ncc(C(=O)NCc3ccc(Cl)cc3)c(O)c2c1` (stereo not shown) [Example 271, tert-Butyl 3-(3-{[(4-chlorobenzyl)amino]carbonyl}-8-fluoro-4-hydroxy-6-quinolinyl)propyl phosphonate], for which, on HCMV polymerase, the pIC50 is 4.69. The same measure, in the same setting: the same measure for `CSC/C=C\c1cc(F)c2ncc(C(=O)NCc3ccc(Cl)cc3)c(O)c2c1` [Example 128, N-[(4-Chlorophenyl)methyl]-8-fluoro-4-hydroxy-6-[(1Z)-3-(methylthio)-1-propenyl]-3-quinolinecarboxamide]: 6.34; for `COCC#Cc1cc(F)c2ncc(C(=O)NCc3ccc(Cl)cc3)c(O)c2c1` [Example 95, N-(4-Chlorobenzyl)-8-fluoro-4-hydroxy-6-(3-methoxy-1-propynyl)-3-quinolinecarboxamide]: 5.72; for `O=C(NCc1ccc(Cl)cc1)c1cnc2c(F)cc(S(=O)(=O)NCCSCCO)cc2c1O` [Example 263, N-(4-chlorobenzyl)-8-fluoro-4-hydroxy-6-[({2-[(2-hydroxyethyl)-sulfanyl]ethyl}amino)sulfonyl]-3-quinolinecarboxamide]: 4.64. Still for that read-out and setting: then `O=C(NCc1ccc(Cl)cc1)c1cnc2c(F)cc(S(=O)(=O)NCc3ccc(-c4csnn4)cc3)cc2c1O` [Example 261, N-(4-chlorobenzyl)-8-fluoro-4-hydroxy-6-({[4-(1,2,3-thiadiazol-4-yl)benzyl]amino}sulfonyl)-3-quinolinecarboxamide], with 4.82; and `CSc1cccc2c(=O)c(C(=O)NCc3ccc(Cl)cc3)c[nH]c12` [Example 65, N-[(4-Chlorophenyl)methyl]-1,4-dihydro-8-(methylthio)-4-oxo-3-quinolinecarboxamide], with 5.48; and `O=C(NCCO)c1cc(F)c2ncc(C(=O)NCc3ccc(Cl)cc3)c(O)c2c1` [Example 181, N^3-(4-Chlorobenzyl)-8-fluoro-4-hydroxy-N^6-(2-hydroxyethyl)-3,6-quinolinedicarboxamide], with 4.41.

Consider `COc1c(F)c(F)cc2c(O)c(C(=O)NCc3ccc(Cl)cc3)cnc12` [Example 79, N-((4-Chlorophenyl)methyl)-6,7-difluoro-4-hydroxy-8-methoxy-3-quinolinecarboxamide], for which the pIC50 at HCMV polymerase was 6.02. With `COc1cc2ncc(C(=O)NCc3ccc(Cl)cc3)c(O)c2cc1OC` [Example 61, N-((4-Chlorophenyl)methyl)-4-hydroxy-6,7-dimethoxy-3-quinolinecarboxamide], on HCMV polymerase, the negative-log IC50 (pIC50) was 5.51. For the compound `COC(=O)c1cc(F)c2ncc(C(=O)NCc3ccc(Cl)cc3)c(O)c2c1` [Example 109, Methyl 3-{[(4-chlorobenzyl)amino]carbonyl}-8-fluoro-4-hydroxy-6-quinolinecarboxylate], the pIC50 at HCMV polymerase was 4.96.

For `CN(CCS(=O)(=O)O)C(=O)CCCCCCC(=O)OCC#Cc1cc(F)c2ncc(C(=O)NCc3ccc(Cl)cc3)c(O)c2c1` [Example 275], the pIC50 at HCMV polymerase is 4.55. On to `CS(=O)(=O)c1cc(F)c2ncc(C(=O)NCc3ccc(Cl)cc3)c(O)c2c1` [Example 176, N-(4-Chlorobenzyl)-8-fluoro-4-hydroxy-6-(methylsulfonyl)-3-quinolinecarboxamide], for which, at HCMV polymerase, the pIC50 was 4.94. With `O=C(NCc1ccc(Cl)cc1)c1cnc2c(F)cc(S(=O)(=O)NCCO)cc2c1O` [Example 197, N-(4-Chlorobenzyl)-8-fluoro-4-hydroxy-6-{[(2-hydroxyethyl)amino]-sulfonyl}-3-quinolinecarboxamide], the negative logarithm of the IC50 (pIC50) at HCMV polymerase is 4.71.

`O=C(NCc1ccc(Cl)cc1)c1cnc2c(F)cc(S(=O)(=O)NCc3ccc(Br)cc3)cc2c1O` [Example 254, 6-{[(4-bromobenzyl)amino]sulfonyl}-N-(4-chlorobenzyl)-8-fluoro-4-hydroxy-3-quinolinecarboxamide]: the negative logarithm of the IC50 (pIC50) on HCMV polymerase is 4.83. `CSCCCc1cc(F)c2ncc(C(=O)NCc3ccc(Cl)cc3)c(O)c2c1` [Example 130, N-[(4-Chlorophenyl)methyl]-8-fluoro-4-hydroxy-6-[3-(methylthio)propyl]-3-quinolinecarboxamide]: on HCMV polymerase, the pIC50 was 5.96.

Regarding `COc1cc(OC)c2ncc(C(=O)NCc3ccc(Cl)cc3)c(O)c2c1` [Example 60, N-((4-Chlorophenyl)methyl)-4-hydroxy-6,8-dimethoxy-3-quinolinecarboxamide], on HCMV polymerase, the pIC50 is 5.40. Regarding `O=C(NCc1ccc(Cl)cc1)c1cnc2cc(CCCO)ccc2c1O` [Example 111, N-(4-Chlorobenzyl)-4-hydroxy-7-(3-hydroxypropyl)-3-quinoline-carboxamide], the pIC50 on HCMV polymerase was 5.59. The same measure, in the same setting: the same measure for `CC(C)(C)OC(=O)CCNS(=O)(=O)c1cc(F)c2ncc(C(=O)NCc3ccc(Cl)cc3)c(O)c2c1` [Example 258, tert-butyl 3-{[(3-{[(4-chlorobenzyl)amino]carbonyl}-8-fluoro-4-hydroxy-6-quinolinyl)sulfonyl]amino}propanoate]: 4.82.

With `CC(O)C#Cc1cc(F)c2ncc(C(=O)NCc3ccc(Cl)cc3)c(O)c2c1` (stereo not shown) [Example 96, N-(4-Chlorobenzyl)-8-fluoro-4-hydroxy-6-(3-hydroxy-1-butynyl)-3-quinolinecarboxamide], the pIC50 at HCMV polymerase is 5.35. On to `O=C(NCc1ccc(Cl)cc1)c1cnc2c(F)cc(S(=O)(=O)NCc3cc(C(F)(F)F)cc(C(F)(F)F)c3)cc2c1O` [Example 236, 6-({[3,5-bis(trifluoromethyl)benzyl]amino}sulfonyl)-N-(4-chlorobenzyl)-8-fluoro-4-hydroxy-3-quinolinecarboxamide], for which the pIC50 at HCMV polymerase is 5.18.
